Data set [1] is described as follows: PK of ARV-110 API, i.v. injection vs oral capsule, fasted beagle dogs (absolute oral bioavailability). Format: in vivo. As to conditions: for AUC(0-inf) / AUC(0-t) / Cmax: fasted condition, geometric mean. As for the experimental part:
The XRPD testing was performed on both API only (ARV-110) and the ASD formulation Batch No. P210803 using D2-Phasher (Bruker) equipment, and with the following parameters: generator, 30.0 kV/10.0 mA; detector, Lynxeye; wavelength, Cu Kal(1.54060); scan mode, continuous PSD fast; scan range, 4-40 degree; step Size, 0.01 degree; time/step, 0.5 s; sample stage rotation, 15 r/min. […] P210803 were in amorphous state. ARV-110 is still under developing in clinical stage. To measure the absolute oral bioavailability, the capsule filled with ARV-110 API was prepared only for oral administration in fasted condition. API was dissolved in DMA and Solutol mixed solution for injection. Three beagle dogs were tested in two dosing groups, one group was for oral, 50 mg dose per dog, and the other group for injection, 5 mg dose per dog. During the study, the dogs were allowed to drink water freely and were fasted for 12 hours before administration, all dogs were given food 4 hours after drug administration. Each dog was administered together with 50 ml water.
Blood samples were taken from each group of animals at the following time points: 0 h (before test drug administration), and 0.25, 0.5, 1, 1.5, 2, 4, 6, 8, 10, 24 h after the drug administration. ARV-110 plasma concentrations were analyzed by an LC-MS/MS method. The non-compartment model of software WinNonlin was used to calculate the pharmacokinetic parameters of each dog, Cmax, AUClast, and AUCinf. The geometric averages of each parameters were used for comparisons of the in vivo absorption under different dosing pretreatments.
The results shown in Table 3B include the geometric mean values as well as coefficient of variation (CV) of the pharmacokinetic parameters of the two dosing groups. […] The absolute bioavailability of ARV-110 is about 6.0%.

Data set [2] in a line: PK of ARV-110 API capsules, fasted vs high-fat fed beagle dogs. The format is in vivo. To be noted: API capsules 45 mg oral; for AUC(0-inf) / AUC(0-t) / Cmax: beagle, dog, in vivo, po, 45 mg, geometric mean. The method, then:
Then, the capsule filled with ARV-110 API was prepared to compare the absorption advantage of our ASD formulation. Each capsule contained 45 mg ARV-110 API. The capsules were tested orally in three beagle dogs under two different dosing pretreatments (with or without high-fat food). During the study, the dogs were allowed to drink water freely and were fasted for 12 hours before administration, for the dosing pretreatment of the fasted condition, all dogs were given food 4 hours after drug administration. Each dog was administered together with 50 ml water. For the dosing pretreatment of the fed condition, all dogs were given a high-fat food 30 minutes prior to dosing.
Blood samples were taken from each group of animals at the following time points: 0 h (before test drug administration), and 0.5, 1, 1.5, 2, 3, 4, 5, 6, 8, 10, 12, 24, 48, 72 h after the drug administration. ARV-110 plasma concentrations were analyzed by an LC-MS/MS method. The non-compartment model of software WinNonlin was used to calculate the pharmacokinetic parameters of each dog, Cmax, AUClast and AUCinf. The geometric averages of each parameters were used for comparisons of the in vivo absorption under different doing pretreatments.
The results shown in Table 3C include the geometric mean values as well as coefficient of variation (CV) of the pharmacokinetic parameters of two dosing groups. […] The high-fat fed condition can enhance the oral absorption by about 6-folds compared to fasted condition.

Data set [3] is described as follows: Three-way crossover PK of ARV-110 API and ASD compositions, fed beagle dogs. As to conditions: in vivo, 50 mg API per dog oral, fed condition, geometric mean.
Protocol: The capsules were given at the dose of 50 mg API per dog for oral administration for each group in fed condition.
The conditions of data set [4]: cited from earlier work.
The conditions of data set [5]: Table 1, footnote 1: Heimbach et al., J Pharm Sci 108 (2019); cited from earlier work.
A short description of data set [6]: PK of ARV-471 API, oral fasted and fed and i.v., beagle dogs. To be noted: for AUC(0-inf) / AUC(0-t) / Cmax: geometric mean. Format: in vivo. The method, then:
(§1) To investigate the oral absorption of ARV-110, two-way crossover or three-way crossover designs were performed. Six Beagle dogs were classified into two or three groups. Each group was administered capsules of different formulations comprising the API or API only at various dose to compare the API absorption in such formulations and also any difference in API absorption in fasted or fed conditions. Each dog was administered with 50 mL water in total. To measure the absolute bioavailability, i.v. injection of a solution comprising API was also performed. The API solution for i.v. injection was prepared by dissolving in DMA and Solutol mixed solution.
(§2) In fasted condition, the dogs were allowed to drink water freely and were fasted for 12 hours before administration, and then were given food 4 hours after drug administration.
(§3) In fed condition, the dogs were fed with high-fat food 30 mins before administration, according to the FDA guidance entitled “Assessing the effects of food on drug in INDs and NDAs-Clinical pharmacology considerations” published on Feb. 26, 2019.
(§4) Blood samples were taken from each group of animals at the different time points after the drug administration. Plasma concentrations were analyzed by an LC-MS/MS method. The non-compartment model of software WinNonlin was used to calculate the pharmacokinetic parameters of each dog, Cmax, AUClast and AUCinf. The geometric averages of each parameters were used for comparisons of the in vivo absorption under different doing pretreatments.
(§5) To investigate the oral absorption of ARV-471, the same study design and procedures as described in Example 3 were performed.
A three-dog, two-way crossover study was performed to evaluate oral bioavailability of ARV-471 API in beagle dogs in fasted and fed condition. A three-dog study was performed to measure the ARV-471 API bioavailability after i.v. injection in fasted condition. Each capsule was filled with 60 mg of API powder and a 6 mg/vial API solution was prepared. One capsule or one vial of API solution were administered to each dog according to the design of the two studies. The results shown in Table 5B include the geometric mean values as well as coefficient of variation (CV) of the pharmacokinetic parameters of the three dosing groups. […] The absolute bioavailability of ARV-471 API is about 7%, and high-fat food can enhance the oral absorption by 2 times.

Data set [7] in a line: Three-way crossover PK of ARV-471 API and ASD compositions, fed beagle dogs. As to conditions: dog, plasma, 60 mg of API oral, fed condition, geometric mean. Format: in vivo. As for the experimental part: as §1, §3, §4, §5
A six-dog, three-way crossover study was performed to evaluate oral bioavailability of ARV-471 API and ASD compositions in beagle dogs in fed condition. There were three study groups, ARV471 API administered in fed condition ASD composition batch no. P220215-1 administered in fed condition, and ASD composition batch no. P220215-2 administered in fed condition, each containing 2 dogs. Capsules were filled with API powder, ASD composition from batch no. P220215-1 and ASD composition from batch no. P220215-2, respectively. […]

Data set [8] can be described thus: PK of ARV-471 API high dose, fasted vs fed beagle dogs. As to conditions: for AUC(0-inf) / AUC(0-t) / Cmax: beagle, dog, plasma, po, 200 mg, API capsule 200 mg oral, geometric mean. The format is in vivo. As for the experimental part:
as §1, §2, §3, §4, §5
A six-dog, two-way crossover study was performed to evaluate oral bioavailability of ARV-471 API dose escalation in beagle dogs in fasted and fed condition. There were two study groups, ARV-471 API orally administered in fasted condition and in fed condition, 200 mg of ARV-471 API was filled in each capsule. The capsules were given at the dose of 200 mg API per dog for oral administration for each group. The results shown in Table 5F include the geometric mean values as well as coefficient of variation (CV) of the pharmacokinetic parameters of two dosing groups.

The mark [9] stands for this setting: beagle, in vivo, iv, I.V. injection 5 mg per dog.
Setting [10] is: beagle, in vivo, API oral capsule 50 mg per dog.
Where [11] appears, read: beagle, dog, plasma, iv, 6 mg, i.v. 6 mg, fasted condition.
Where [12] appears, read: beagle, dog, plasma, po, 60 mg, API capsule oral 60 mg, fasted condition.
Where [13] appears, read: beagle, dog, plasma, po, 60 mg, API capsule oral 60 mg, fed condition.

Consider 2 compounds from patent US12350268B2, “Pharmaceutical compositions of PROTAC compounds and uses thereof” (Shenzhen Pharmacin Co., Ltd., priority 2022, dated 2025).

The bioavailability is dose-corrected exposure relative to a reference, in per cent. A word on the AUC(0-inf): it is the area under the concentration-time curve extrapolated to infinity. High values mean high exposure, low ones low exposure. One may read the AUC(0-t) as exposure summed from dosing to a finite time, without extrapolation to infinity. Read a low AUC(0-t) as low exposure. As usually defined, the Cmax is the peak of the concentration-time curve.

Turning to `N#Cc1ccc(O[C@H]2CC[C@H](NC(=O)c3ccc(N4CCC(CN5CCN(c6cc7c(cc6F)C(=O)N(C6CCC(=O)NC6=O)C7=O)CC5)CC4)nn3)CC2)cc1Cl` (some centres unmarked) [ARV-110, N-((1r,4r)-4-(3-chloro-4-cyanophenoxy)cyclohexyl)-6-(4-((4-(2-(2,6-dioxopiperidin-3-yl)-6-fluoro-1,3-dioxoisoindolin-S-yl)piperazin-1-yl)methyl)piperidin-1-yl)pyridazine-3-carboxamide], in data set [1] (amorphous API, oral 50 mg, fasted dogs), the “oral absorption (in words)” value is given as “poor absorption in fasted condition”. The compound further came in with a bioavailability in data set [1] (beagle, dog, in vivo, 50 mg per dog, oral 50 mg vs i.v. 5 mg, fasted dogs) of around 6%. For the same compound, the AUC(0-inf) in data set [1] (setting [9]) stood at 866 ng·h/mL; in data set [1] (setting [10]), 279 ng·h/mL; in data set [2] (fasted condition), 278 ng·h/mL; in data set [2] (fed condition (high-fat food)), 1550 ng·h/mL; in data set [3], 3000 ng·h/mL. The AUC(0-t) in data set [1] (setting [9]) amounted to 588 ng·h/mL; in data set [1] (setting [10]), 162 ng·h/mL; in data set [2] (fasted condition), 218 ng·h/mL; in data set [2] (fed condition (high-fat food)) it was 1410 ng·h/mL; in data set [3], 2570 ng·h/mL. In addition, the Cmax turned out to be 575 ng/mL in data set [1] (setting [9]); 10.7 ng/mL in data set [1] (setting [10]); 7.6 ng/mL in data set [2] (fasted condition); 56.5 ng/mL in data set [2] (fed condition (high-fat food)); 80.3 ng/mL in data set [3]. Moreover, the “enhancement of oral absorption, high-fat fed vs fasted condition” value in data set [2] is reported as “about 6 folds”. Moreover, the “food effect (in words)” value in data set [2] (fed vs fasted) is “significant food effect”. The “dissolution in the aqueous solution (in words)” value in data set [4] is reported as “very hard to dissolve in the aqueous solution”. The “Calculated log P” value in data set [5] was 5.8^1.

Turning to `O=C1CC[C@H](N2Cc3cc(N4CCN(CC5CCN(c6ccc([C@@H]7c8ccc(O)cc8CC[C@@H]7c7ccccc7)cc6)CC5)CC4)ccc3C2=O)C(=O)N1` [ARV-471, (3S)-3-[5-[4-[[1-[4-[(1R,2S)-6-hydroxy-2-phenyl-tetralin-1-yl]phenyl]-4-piperidyl]methyl]piperazin-1-yl]-1-oxo-isoindolin-2-yl]piperidine-2,6-dione], the “enhancement of oral absorption by high-fat food” value in data set [6] (API oral 60 mg, fed vs fasted) was 2 times. Further, the “oral absorption (in words)” value in data set [6] (amorphous API oral 60 mg, fasted dogs) is given as “poor absorption in fasted condition”. The AUC(0-inf) in data set [6] (setting [11]) came out at 3220 ng·h/mL; in data set [6] (setting [12]) it was 2480 ng·h/mL; in data set [6] (setting [13]) it was 5230 ng·h/mL; in data set [7] it was 5840 ng·h/mL; in data set [8] (fasted condition) it was 7650 ng·h/mL; in data set [8] (fed condition), 15600 ng·h/mL. Further, the area under the curve AUC(0-t) in data set [6] (setting [11]) is 3120 ng·h/mL; in data set [6] (setting [12]), 2360 ng·h/mL; in data set [6] (setting [13]), 5020 ng·h/mL; in data set [7] it was 5600 ng·h/mL; in data set [8] (fasted condition), 7140 ng·h/mL; in data set [8] (fed condition) it was 14700 ng·h/mL. Moreover, the Cmax in data set [6] (setting [11]) was 609 ng/mL; in data set [6] (setting [12]) it was 200 ng/mL; in data set [6] (setting [13]), 428 ng/mL; in data set [7], 381 ng/mL; in data set [8] (fasted condition) it was 415 ng/mL; in data set [8] (fed condition), 860 ng/mL. Moreover, the bioavailability in data set [6] (beagle, dog, plasma, oral 60 mg vs i.v. 6 mg, fasted dogs, read-out: absolute bioavailability) is around 7%. The “enhancement of oral absorption by high-fat food vs fasted condition” value in data set [8] (API 200 mg oral) is 2 times. Also, in data set [4], the “dissolution in the aqueous solution (in words)” value was “very hard to dissolve in the aqueous solution”.
